We go through 17 compounds from ChEMBL document CHEMBL1154733, “Synthesis and in vitro opioid receptor functional antagonism of methyl-substituted analogues of (3R)-7-hydroxy-N-[(1S)-1-{[(3R,4R)-4-(3-hydroxyphenyl)-3,4-dimethyl-1-piperidinyl]methyl}-2-methylpropyl]-1,2,3,4-tetrahydro-3-isoquinolinecarboxamide (JDTic)” (J Med Chem, 2009).

Some results are limits rather than exact numbers.

Assay [1] concerns the target Kappa-type opioid receptor (Homo sapiens) (UniProt P41145). The assay can be described thus: Antagonist activity at human cloned kappa opioid receptor expressed in CHO cells assessed as inhibition of U69593-stimulated [35S]GTPgammaS binding. In kind it is functional, cell-based. In general terms: Binding of GTPγS marks nucleotide exchange on a G protein.
Assay [2] addresses Mu-type opioid receptor (Homo sapiens) (UniProt P35372). The experiment in a line: Antagonist activity at human cloned mu opioid receptor expressed in CHO cells assessed as inhibition of DAMGO-stimulated [35S]GTPgammaS binding. The assay is classed as functional, cell-based.
The species named for assay [3] is Homo sapiens. The assay can be described thus: Ratio of Ke for human cloned mu opioid receptor to Ke for human cloned kappa opioid receptor.
For assay [4], the species on record is Homo sapiens. The experiment in a line: Ratio of Ke for human cloned delta opioid receptor to Ke for human cloned kappa opioid receptor.
The target in assay [5] is Delta-type opioid receptor (Homo sapiens) (UniProt P41143). The assay can be described thus: Antagonist activity at human cloned delta opioid receptor expressed in CHO cells assessed as inhibition of DPDPE-stimulated [35S]GTPgammaS binding. In kind it is functional, cell-based.
Delta-type opioid receptor (Homo sapiens), sequence (P41143 whole entry): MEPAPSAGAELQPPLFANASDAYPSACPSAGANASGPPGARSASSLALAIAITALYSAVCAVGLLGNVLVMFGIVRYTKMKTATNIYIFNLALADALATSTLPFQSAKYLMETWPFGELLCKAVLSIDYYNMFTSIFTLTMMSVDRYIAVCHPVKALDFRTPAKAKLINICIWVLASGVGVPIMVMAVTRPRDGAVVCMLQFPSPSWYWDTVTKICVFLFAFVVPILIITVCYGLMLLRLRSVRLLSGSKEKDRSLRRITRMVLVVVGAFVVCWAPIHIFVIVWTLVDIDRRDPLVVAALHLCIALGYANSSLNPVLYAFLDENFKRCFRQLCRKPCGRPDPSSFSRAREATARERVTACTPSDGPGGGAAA
The target in assay [6] is Mu-type opioid receptor (Homo sapiens) (UniProt P35372). The experiment in a line: Ratio of JDTic Ke to compound Ke for human cloned mu opioid receptor expressed in CHO cells. The assay is classed as cell-based.
Mu-type opioid receptor (Homo sapiens), sequence (P35372 whole entry): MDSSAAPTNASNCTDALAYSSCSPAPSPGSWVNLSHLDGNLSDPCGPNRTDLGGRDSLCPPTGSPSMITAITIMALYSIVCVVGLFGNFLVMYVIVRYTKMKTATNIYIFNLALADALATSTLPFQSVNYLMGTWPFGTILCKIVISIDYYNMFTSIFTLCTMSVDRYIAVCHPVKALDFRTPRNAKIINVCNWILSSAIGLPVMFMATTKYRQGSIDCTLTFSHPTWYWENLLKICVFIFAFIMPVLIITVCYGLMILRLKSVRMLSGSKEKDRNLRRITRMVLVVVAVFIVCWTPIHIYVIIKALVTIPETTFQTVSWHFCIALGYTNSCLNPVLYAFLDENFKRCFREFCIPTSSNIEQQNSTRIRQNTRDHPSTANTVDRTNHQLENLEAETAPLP
Assay [7] deals with Kappa-type opioid receptor (Homo sapiens) (UniProt P41145). The assay can be described thus: Ratio of compound Ke to JDTic Ke for human cloned kappa opioid receptor expressed in CHO cells. The assay is classed as cell-based.
Kappa-type opioid receptor (Homo sapiens), sequence (P41145 whole entry): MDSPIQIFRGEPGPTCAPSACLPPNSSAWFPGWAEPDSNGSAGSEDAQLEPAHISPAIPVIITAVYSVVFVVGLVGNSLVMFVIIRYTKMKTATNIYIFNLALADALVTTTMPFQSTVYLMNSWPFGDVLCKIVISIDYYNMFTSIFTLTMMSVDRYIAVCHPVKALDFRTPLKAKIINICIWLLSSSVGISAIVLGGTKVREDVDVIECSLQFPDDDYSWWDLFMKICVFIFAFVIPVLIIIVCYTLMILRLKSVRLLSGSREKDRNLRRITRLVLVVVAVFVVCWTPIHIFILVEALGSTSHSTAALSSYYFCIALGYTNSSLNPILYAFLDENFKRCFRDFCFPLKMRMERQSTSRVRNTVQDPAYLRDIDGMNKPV

For `CC[C@H](C)[C@@H](CN1CC[C@@](C)(c2cccc(OC)c2)[C@@H](C)C1)NC(=O)[C@H]1Cc2ccc(O)cc2CN1`, the Ke in assay [1] worked out at 0.96 nM; in assay [2], 5.1 nM.
For `CC(C)[C@@H](CN1CC[C@@](C)(c2cccc(O)c2)[C@@H](C)C1)NC(=O)[C@H]1Cc2ccc(O)cc2CN1`, the values for the Ratio Ke in the assay listed under Homo sapiens [3] and in the assay listed under Homo sapiens [4] were 1260 and 3830, respectively.
For the compound `COc1cccc([C@]2(C)CCN(C[C@@H](NC(=O)[C@H]3Cc4ccc(O)cc4CN3C)C(C)C)C[C@@H]2C)c1`, the figures for the Ke in assay [5], in assay [1] and in assay [2] were 2300 nM, 4.3 nM and 880 nM, respectively. The Ratio Ke was determined as 204 in the assay filed under Homo sapiens [3] and 535 in the assay listed under Homo sapiens [4].
Turning to `CC[C@H](C)[C@@H](CN1CC[C@@](C)(c2cccc(OC)c2)[C@@H](C)C1)NC(=O)[C@H]1Cc2ccc(O)cc2CN1C`, the Ke in assay [5] is more than 10000 nM; in assay [1], 2.03 nM; in assay [2], 360 nM. For the same compound, the Ratio Ke in the assay filed under Homo sapiens [3] came to 180.
For the compound `COc1ccc2c(c1)CN(C)[C@@](C)(C(=O)N[C@H](CN1CC[C@@](C)(c3cccc(O)c3)[C@@H](C)C1)C(C)C)C2`, the results for the Ke in assay [1] and in assay [2] were 2.2 nM and 7 nM, respectively.
Regarding `CC(C)[C@@H](CN1CC[C@@](C)(c2cccc(O)c2)[C@@H](C)C1)NC(=O)[C@H]1Cc2ccc(O)cc2CN1C`, the Ke in assay [5] was found to be 491 nM; in assay [1], 0.16 nM; in assay [2] it was 210 nM. Besides, the values for the Ratio Ke in the assay listed under Homo sapiens [3] and in the assay filed under Homo sapiens [4] were 1310 and 3070, respectively.
Regarding `COc1cccc([C@]2(C)CCN(C[C@@H](NC(=O)[C@@]3(C)Cc4ccc(OC)cc4CN3)C(C)C)C[C@@H]2C)c1`, the figures for the Ke in assay [5] and in assay [1] were more than 10000 nM and 15.2 nM, respectively.
Consider `CC[C@H](C)[C@@H](CN1CC[C@@](C)(c2cccc(O)c2)[C@@H](C)C1)NC(=O)[C@H]1Cc2ccc(O)cc2CN1C`, for which the Ke in assay [5] came out at 132 nM; in assay [1], 0.11 nM; in assay [2], 7.2 nM. For the same compound, the Ratio Ke worked out at 66 in the assay listed under Homo sapiens [3] and 1200 in the assay filed under Homo sapiens [4].
Consider `CC[C@H](C)[C@@H](CN1CC[C@@](C)(c2cccc(O)c2)[C@@H](C)C1)NC(=O)[C@@]1(C)Cc2ccc(OC)cc2CN1`, for which the Ke in assay [5] was 18.7 nM; in assay [1] it was 3.5 nM; in assay [2] it was 17.5 nM. Besides, the Ratio Ke in the assay listed under Homo sapiens [3] and in the assay listed under Homo sapiens [4] was 5 each time.
For `CC[C@H](C)[C@@H](CN1CC[C@@](C)(c2cccc(O)c2)[C@@H](C)C1)NC(=O)[C@@]1(C)Cc2ccc(O)cc2CN1`, the Ke in assay [1] was determined as 0.11 nM; in assay [2], 8.7 nM.
In the case of `CC[C@H](C)[C@@H](CN1CC[C@@](C)(c2cccc(O)c2)[C@@H](C)C1)NC(=O)[C@H]1Cc2ccc(O)cc2CN1`, the results for the Ratio Ke (in the assay filed under Homo sapiens [3]; in assay [6]; in the assay listed under Homo sapiens [4]) were 100, 8 and 800, respectively.
As to `CC[C@H](C)[C@@H](CN1CC[C@@](C)(c2cccc(OC)c2)[C@@H](C)C1)NC(=O)[C@@]1(C)Cc2ccc(O)cc2CN1`, the Ke in assay [5] was determined as 2100 nM; in assay [1], 0.52 nM.
Consider `COc1ccc2c(c1)CN[C@@](C)(C(=O)N[C@H](CN1CC[C@@](C)(c3cccc(O)c3)[C@@H](C)C1)C(C)C)C2`, for which the Ke came to 36.8 nM in assay [5], 0.93 nM in assay [1] and 3.8 nM in assay [2]. The values for the Ratio Ke in the assay listed under Homo sapiens [3] and in the assay listed under Homo sapiens [4] were 4 and 40, respectively.
Consider `COc1ccc2c(c1)CN[C@@H](C(=O)N[C@H](CN1CC[C@@](C)(c3cccc(O)c3)[C@@H](C)C1)C(C)C)C2`, for which the Ratio Ke in assay [7] came out at 3; in the assay listed under Homo sapiens [3] it was 857; in the assay listed under Homo sapiens [4] it was 1970.
In the case of `COc1cccc([C@]2(C)CCN(C[C@@H](NC(=O)[C@H]3Cc4ccc(O)cc4CN3)C(C)C)C[C@@H]2C)c1`, the Ratio Ke was determined as 2 in assay [7], 649 in the assay listed under Homo sapiens [3] and 573 in the assay listed under Homo sapiens [4]. The Ke is 21.2 nM in assay [5], 0.037 nM in assay [1] and 24 nM in assay [2].
Regarding `COc1cccc([C@]2(C)CCN(C[C@@H](NC(=O)[C@@]3(C)Cc4ccc(O)cc4CN3)C(C)C)C[C@@H]2C)c1`, the Ke in assay [5] was determined as 2200 nM; in assay [1], 0.26 nM.
Consider `CC(C)[C@@H](CN1CC[C@@](C)(c2cccc(O)c2)[C@@H](C)C1)NC(=O)[C@@]1(C)Cc2ccc(O)cc2CN1`, for which the Ke in assay [5] was found to be 854 nM; in assay [1], 0.03 nM; in assay [2], 3.6 nM. The Ratio Ke is 120 in the assay filed under Homo sapiens [3] and 28500 in the assay filed under Homo sapiens [4].
